Experimental data from a melting point compilation (Tetko et al.; mined from patent text by program, amines drawn as free bases though some values may be those of a salt).

| Compound | melting point [°C] |
| --- | --- |
| CC(C)(CN)c1ccc(C(=O)NCCc2ccc3[nH]cc(C(=N)N)c3c2)cc1 | 67 to 70 |
| CCc1cn2ccccc2c1S(=O)(=O)c1ccc(O)c(C)c1 | 214 |
| O=C(Nc1ccccc1Cl)Oc1ccc2c(c1)N(Cc1ccccc1)CCC2 | 145 |
| COc1ccc(-c2c(C(=O)O)c(=O)n(Cc3ccccc3OC)c3c2oc2cc(N)ccc23)cc1 | 245 |
| CNC(=O)CCC(=O)c1ccc(OCC2CO2)cc1 (centres undefined) | 133 to 140 |
| C#CCn1ccc2ccccc2c1=O | 104 to 105 |
| CCCCCCCCCOc1ccc2c(c1)C(CCNC(=O)CCC)CC2 (centres undefined) | 53 to 55 |
| N#CC(C#N)=C1CC(=C(C#N)C#N)c2ccccc21 | 224 to 228 |
| C#CCn1c(-c2ccccc2)nc(C#C)c(CC)c1=O | 134 to 136 |
| O=C1Nc2ccccc2OC1CCCN1CCC(Cc2ccccc2)CC1 (centres undefined) | 108 |
| CC(=O)OC1CSC(Oc2cccc(-c3cc(C)ccn3)c2)C(OC(C)=O)C1OC(C)=O (centres undefined) | 116 |
| Nc1cc(/C=C/c2cc(/C=C/c3ccc4cc[nH]c4c3)[nH]n2)ccc1O | 123 to 126 |
| O=C1c2ccccc2CCC1CN1CCC(O)(c2ccccc2)CC1 (centres undefined) | 164 to 167 |
| COC(=O)c1cccc2c1OC1CC(N=[N+]=[N-])C(O)C21 (centres undefined) | 150 to 152 |
| COc1cc(/C=C2/C(C)=C(CC(=O)O)c3cc(F)ccc32)cc(OC)c1OC | 149 to 152 |
| CN(C)c1ccc2[nH]c3c([N+](=O)[O-])ccc(Cl)c3c(=O)c2c1 | > 300 |
| CC(CCCc1ccccc1)c1cc(O)c2c3c(c(=O)oc2c1)CCC(=O)C3 (centres undefined) | 163 to 164 |
| O=C(Nc1cccc2ccnnc12)c1c(Cl)cccc1Cl | 226 to 228 |
| CN(C)c1nc2sc3c(NCc4ccco4)ncnc3c2c2c1CC(C)(C)C2 | 217 |
| CC(C)n1c(=O)n(C)c(=O)c2cc(Cc3ccccc3)sc21 | 91 to 93 |
| CCCCCC(=O)NCCc1ccc(S(=O)(=O)NC(=O)c2ccc(C(=O)NCC(=O)O)nc2)cc1 | 115 to 116 |
| C(=Cc1ccccc1)Cn1ccnc1 | 37 to 38 |
| COc1ccc(-c2nc(C(=O)Nc3c(C)cccc3C)c[nH]2)cc1OC1CCCC1 | 118 to 122 |
| CCOc1ccc(-c2c(Cl)c(CCl)nc3sc4c(c23)CCN(C(=O)OCc2ccccc2)C4)cc1 | 159 to 161 |
| Cc1cc(C(=O)NC2CC2)ccc1N1CCN(C(=O)OC(C)(C)C)CC1 | 111 to 115 |

| Compound | melting point [°C] |
| --- | --- |
| CC(C)NC(=O)NC1CCCc2sccc21 (centres undefined) | 223 to 226 |
| CC1(C)Oc2ccc(C#N)cc2[C@@H](Br)[C@@H]1O (relative stereo) | 111 to 112 |
| CC(C)(C)c1cc(CCc2ccccc2NC(=O)NCC(C)(C)c2ccc(F)cc2)cc(C(C)(C)C)c1O | 179 to 180 |
| CCOc1ccc(-c2nc(-c3ccc(N)c(C(=O)O)c3)cs2)cc1OCC | 228 to 229 |
| COc1ccccc1C1(Cl)C(=O)Nc2ccc(C)c(Cl)c21 (centres undefined) | 262 to 263 |
| CC(C)n1nc(-c2sc(NC(=O)C3CCCCC3)nc2-c2ccccc2)ccc1=O | 234 to 236 |
| CN1C(=O)CC[C@]2(C)c3ccc(Sc4nc(-c5ccccc5)nc5ccccc45)cc3CC[C@@H]12 | 185 to 193 |
| CC(C)(C)C(=O)Oc1ccc(-c2nnn(CCO)n2)cc1 | 92 to 95 |
| CCC1(O)c2ccccc2C=Cc2ccccc21 | 63 to 65 |
| CCOC(=O)c1c(C)noc1C(=O)O | 54 to 58 |
| COC(=O)CC(NC(=O)C1CCCCC1)C(C)=O (centres undefined) | 87 to 88 |
| CN(CCNc1ccn2ncc(-c3cccs3)c2n1)C(=O)OC(C)(C)C | 140 to 141 |
| O=C1N(Cc2ccccn2)c2cccc(-c3cccnc3)c2C12COc1cc3c(cc12)CCO3 (centres undefined) | > 200 |
| CCc1coc(Cc2ccc([N+](=O)[O-])cc2)n1 | 58 to 59 |
| CC(O)C#Cc1cccc(NC(=O)Nc2ncc(C(C)C)s2)c1 (centres undefined) | 71 to 73 |
| Nc1ncnc2c1ncn2OCCSCP(=O)(O)O | 211 to 213 |
| CCC(C)Nc1c([N+](=O)[O-])cc(C)c(Cl)c1[N+](=O)[O-] (centres undefined) | 40 to 46 |
| OC1CSC(Oc2cccc(-c3ccco3)c2)C(O)C1O (centres undefined) | 138 |
| CC(=O)N(C(C)=O)c1ccccc1Cn1[nH]c2ccccc2c1=O | 114 to 115 |
| Cc1cc(CC#N)cc(CC#N)c1 | 75 to 78 |
| Nc1nc2cccnc2c2c1ncn2Cc1cc(-c2ccc(F)cc2)no1 | 265 to 266 |
| CC(C)(C)C(=O)c1c[nH]c2ncc(C3=C(c4ccccc4)CCC3)nc12 | 207 to 209 |
| NS(=O)(=O)c1ccc(C#Cc2cnc3c(C(F)(F)F)cc(-c4ccc(C(F)(F)F)cc4)cn23)cc1 | 278 to 280 |
| C#Cc1cc(-c2cccs2)c(OC)cc1OC | 141 to 142 |
| CC(C)(C)N1CC(COc2cccc3c2SCCC3)OC1=O (centres undefined) | 90 |

| Compound | melting point [°C] |
| --- | --- |
| COc1ccccc1CNC(=O)c1ccc2c(c1)N(C(C)CN1CCCC1)c1ccccc1S2 (racemic) | 127 |
| CC1(C)CC(=O)C1(Cl)CC(Br)(Br)Br (centres undefined) | 95 to 97 |
| CS(=O)(=O)c1cc(CCC(=O)O)nc(-c2nc(=O)c3ccc(Cl)cc3s2)c1 | 229 |
| FC(F)(F)c1cc(Cl)c(-n2ncc(-c3nc(C(F)(F)F)c[nH]3)n2)c(Cl)c1 | 262 to 264 |
| CCOC(=O)CSc1nnc(SCCCBr)s1 | 118 to 120 |
| Cc1ccc(Cl)c(NS(=O)(=O)c2nc(C)n(-c3ncccn3)n2)c1Cl | 214 to 216 |
| O=C(O)Cc1ccc2c(c1)CC(NS(=O)(=O)c1ccc(Cl)cc1)C2 (centres undefined) | 154 to 155 |
| CCOC(=O)c1c(C(C)(C)O)nc(SC)n1Cc1ccc(-c2ccccc2-c2nnnn2C(c2ccccc2)(c2ccccc2)c2ccccc2)cc1 | 125 to 127 |
| O=C(c1ccc(Nc2ccnc3cc(C(F)(F)F)ccc23)cc1)N1CCN(S(=O)(=O)c2ccc(F)cc2)CC1 | 251 to 253 |
| Cc1c(C#N)sc2nc(-c3ccncc3)nc(N(C)CCO)c12 | 194 to 195 |
| CNC(=O)c1ccc(F)c2c1CC(N(CCc1c[nH]c3ccc(F)cc13)CC1CC1)CO2 (centres undefined) | 138 |
| c1ccc(C(OC2CCN(CCCn3cnc4ccccc43)CC2)c2ccccc2)cc1 | 110 |
| Cc1oc(-c2ccc3ccccc3c2)nc1/C=C/c1ccc(C=O)cc1 | 162 to 163 |
| Cc1nnc(F)c(-c2c(F)cc(F)cc2F)c1-c1ccc(Cl)cc1 | 114 to 115 |
| O=C(Nc1ccc(Cl)cn1)c1nc(-c2ccccc2)c2ccccc2c1O | 249 to 251 |
| COC(=O)c1c(-c2ccc(Cl)cc2)ccnc1Br | 73 to 76 |
| OCCCc1ccc(Nc2c(-c3nnc(NCCN4CCOCC4)o3)ccc(F)c2F)c(F)c1 | 102 to 106 |
| NNC1CCC(c2ccccc2F)c2cc(Cl)ccc2N1 (centres undefined) | 213 to 215 |
| CC1Cc2cccc3c4oc(=O)c(Br)c(O)c4c(=O)n1c23 (centres undefined) | 221 to 222 |
| c1ccc(C2CN=C3Sc4ccccc4N32)cc1 (centres undefined) | 132 |
| CC(C)C(=O)NC1C(OCc2ccccc2)=CC=CC1(Br)[N+](=O)[O-] (centres undefined) | 197 to 198 |
| COc1cc([N+](=O)[O-])c(C=O)cc1OCc1ccccc1 | 131 to 132 |
| CCCCCCC(C)(C)c1cc(O)c2c(c1)OC(C)(C)CC2C(=O)O (centres undefined) | 147 to 148 |
| CCOC1CC2(C)C(CCC3C4CC=C(C(C)=O)C4(C)CC(=O)C32)CC1O (centres undefined) | 89 to 91 |
| O=C(NNS(=O)(=O)c1ccccc1)c1ccc(F)cc1Cl | 147 to 149 |

| Compound | melting point [°C] |
| --- | --- |
| COc1ccccc(NC(=O)C2=C(O)c3ccccc3S(=O)(=O)N2C)c1=O | 243 to 247 |
| CN(C)S(=O)(=O)c1ccc(F)cc1 | 40 to 43 |
| CC(C)Oc1ccc(N2CCCNCC2)cc1 | 62 to 64 |
| O=C1NC(=O)C(Cc2ccc(OCc3nc4cccnc4n3Cc3ccc(-c4ccccc4)cc3)cc2)S1 (centres undefined) | 189 to 191 |
| Cc1ncc([N+](=O)[O-])n1CCN1C(=O)CC(C)(C)CC1=O | 153 to 154 |
| CN1CCN(c2cccc3ccc(NCc4cccc5ccccc45)cc23)CC1 | 140 to 141 |
| CS(=O)(=O)c1cc(C(=O)N=C(N)N)ccc1Oc1ccc(=O)[nH]n1 | 268 to 270 |
| O=C1CCCCN1CCc1c[nH]c2ccc(Cl)cc12 | 155 |
| CCCNC(=O)c1nc(-c2ccccc2)c(-c2ccc(=O)n(C)n2)s1 | 108 to 109 |
| Cc1nc2ccccc2n1-c1ccc(C(=O)O)cc1 | 299 to 300 |
| Cc1ccc(N2CCN(Cc3ccc4c(c3)OCC(=O)N4)CC2)cc1 | 208 to 210 |
| Cc1cc(SC(C)C)c(NC(=O)CCCCSc2nc3ccccc3s2)c(SC(C)C)n1 | 107 to 109 |
| N=C(NC(=O)Nc1ccc([N+](=O)[O-])cc1)c1ccccc1 | 188 to 191 |
| Cc1ccccc1N1CCN(CCc2ccc(N3CCCNC3=O)cc2)CC1 | 127 to 128 |
| COC(=O)c1ccc(Cc2cccc3ccc(C(N)=O)cc23)c(OC)c1 | 215 to 216 |
| Cc1c(NC(=O)c2ccc(OCC3CC3)cc2)ccc2cc(CN3CCC(C)(O)CC3)[nH]c12 | 195 |
| CCOC(=O)C(O)CSc1ccc(-c2ccccc2)cc1 (centres undefined) | 102 |
| CCN(CC)CCCN1C(=O)NC(Cc2c[nH]c3ccc(Cl)cc23)C1=O (centres undefined) | 186 |
| CNC(=NCCSCc1ncccc1OC)NC#N | 122 to 123 |
| O=C1CC(Cc2ccncc2)(Cc2ccncc2)C(=O)N1C12CC3CC(CC(C3)C1)C2 | 137 to 138 |
| CCCCCCCCn1nnc(NC(=O)Nc2c(C(C)C)cccc2C(C)C)n1 | 139 to 140 |
| COCCOC(=O)Nc1cccc(C)c1COc1cccn2c(CO)c(C)nc12 | 121 to 123 |
| CC1(C)CC(=O)C(C(=O)Nc2cccc(C(F)(F)F)c2)C(=O)O1 (centres undefined) | 150 |
| c1ccc(-c2ccc3nc(C4(c5ccc6nccnc6c5)N=c5ccccc5=N4)[nH]c3c2)cc1 | 235 |
